Source: patent EP4656642A1, “ESTROGEN RECEPTOR PROTEOLYSIS TARGETING CHIMERA COMPOUND AND USE THEREOF” (GAN & LEE PHARM CO., LTD, priority 2023, dated 2024)

Columns and labels:
Format in all cases: cell-based
[1] = biological target: T1, ERα (Homo sapiens, UniProt P03372); experiment: Degradation of ERα in T-47D cells (immunoblotting, 4 h); set-up: host or cells: T-47D
T1 sequence (P03372 1-595): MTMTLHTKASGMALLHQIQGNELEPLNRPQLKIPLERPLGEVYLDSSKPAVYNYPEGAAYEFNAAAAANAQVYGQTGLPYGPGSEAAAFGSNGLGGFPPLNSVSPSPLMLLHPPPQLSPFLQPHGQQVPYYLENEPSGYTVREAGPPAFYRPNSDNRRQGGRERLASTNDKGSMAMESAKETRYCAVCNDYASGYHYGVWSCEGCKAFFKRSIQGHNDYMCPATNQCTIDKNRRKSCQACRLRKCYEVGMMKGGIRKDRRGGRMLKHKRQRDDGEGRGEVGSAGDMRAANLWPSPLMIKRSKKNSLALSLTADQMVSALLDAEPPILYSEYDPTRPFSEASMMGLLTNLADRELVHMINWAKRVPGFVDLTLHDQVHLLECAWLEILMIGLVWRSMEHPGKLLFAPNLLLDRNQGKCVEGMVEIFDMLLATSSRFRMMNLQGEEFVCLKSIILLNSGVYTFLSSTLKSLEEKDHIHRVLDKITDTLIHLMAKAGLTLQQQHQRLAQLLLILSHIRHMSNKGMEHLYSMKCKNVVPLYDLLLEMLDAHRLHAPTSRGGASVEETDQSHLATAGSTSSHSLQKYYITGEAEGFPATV
In short: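 T-47D cells were treated with compound (final 0.15-1000 nM, DMSO) for 4 h at 37°C, 5% CO2. Cells were lysed in RIPA buffer with protease inhibitor, and ERα protein in the cleared lysate was measured by immunoblotting.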

[2] = system: MCF-7 cells; experiment: Inhibition of cell proliferation of MCF-7 cells (CCK-8, 9 days)
In short: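 MCF-7 cells seeded at 800 cells/well in DMEM with 10% FBS, exposed to a range of compound concentrations for 9 days at 37°C, 5% CO2. Viability read by CCK-8; IC50 derived for proliferation inhibition.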

[3] = system: T-47D cells; experiment: Inhibition of cell proliferation in T-47D cells (CCK-8, 6 days); conditions: 6 days of treatment
In short: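 T-47D cells at 3,000 cells/well in RPMI 1640 with 10% FBS were exposed to a concentration series of PROTAC compounds for 6 days at 37 °C, 5% CO2. Viability was read by CCK-8, and IC50 values were derived for proliferation inhibition.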

[4] = biological target: T1, ERα; experiment: Degradation of ERα in MCF-7 cells (immunoblotting, 4 h)
In short: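 MCF-7 cells treated 4 h at 37°C with compounds at 0.15-1000nM final. ERα in lysates measured by immunoblot, with band grayscale normalized to an internal reference protein. Degradation rate calculated against DMSO-treated control.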

[5] = treated for 9 days, CCK-8 kit (Table 6)

Structure (SMILES)	Degradation rate (%) of ERα in T-47D cells ([1]; 1nM compound) [%]	Degradation rate (%) of ERα in T-47D cells ([1]; 10nM compound) [%]	IC50 [2, 5] [nM]	IC50 ([3]; Table 3) [nM]	Degradation rate (%) of ERα in MCF-7 cells ([4]; 1nM compound) [%]	Degradation rate (%) of ERα in MCF-7 cells ([4]; 10nM compound) [%]	IC50 ([2]; 9 days of treatment, CCK-8, Table 5) [nM]	IC50 ([3]; Table 2) [nM]
CCNC(=O)[C@@H]1CC(N2CCC3(CC2)COc2c3ccc3c2CN(C2CCC(=O)NC2=O)C3=O)CCN1C1CC2(CCN(c3ccc([C@@H]4c5ccc(O)cc5CC[C@@H]4c4ccccc4)cc3)CC2)C1 (stereo partly drawn) [H40]	56	86	57.9	1.42	69	84	–	–
O=C1CCC(N2Cc3c(ccc4c3OCC43CCN(C4CC5(CCN(c6ccc([C@@H]7c8ccc(O)cc8CC[C@@H]7c7ccccc7)cc6)CC5)C4)CC3)C2=O)C(=O)N1 (stereo partly drawn) [L16]	29	64	39	7.09	29	51	–	–
O=C1CCC(N2Cc3cc4c(cc3C2=O)OC2(CC4)CN(C3CCC4(CC3)CN(c3ccc(C5c6ccc(O)cc6CCC5c5ccccc5)cc3)C4)C2)C(=O)N1 (stereo not drawn) [B8]	–	33	6.57	31	–	16	90	2.9
O=C1CCC(N2Cc3c(ccc4c3OCC43CCN(CC4CCN(c5ccc([C@@H]6c7ccc(O)cc7CC[C@@H]6c6ccccc6)cc5)CC4)CC3)C2=O)C(=O)N1 (stereo partly drawn) [H8]	-20	-37	27200	31.9	-23	-48	–	–
O=C1CCC(N2Cc3c(ccc4c3OCC43CCN(C4CCN(C(=O)c5ccc([C@@H]6c7ccc(O)cc7CC[C@@H]6c6ccccc6)cc5)CC4)CC3)C2=O)C(=O)N1 (stereo partly drawn) [H9]	-3	-31	5020	594	-39	-54	–	–
O=C1CCC(N2Cc3cc4c(cc3C2=O)OC2(CC4)CN(C(=O)C3CC4(CCN(c5ccc([C@@H]6c7ccc(O)cc7CC[C@@H]6c6ccccc6)cc5)CC4)C3)C2)C(=O)N1 (stereo partly drawn) [A49]	17	48	11100	9.63	9	37	–	–
CC1CN(C2CC3(CCN(c4ccc([C@@H]5c6ccc(O)cc6CC[C@@H]5c5ccccc5)cc4)CC3)C2)CCC1N1CCC2(CC1)COc1c2ccc2c1CN(C1CCC(=O)NC1=O)C2=O (stereo partly drawn) [K20]	4	44	19.6	2.59	37	70	–	–
CCN(CC(=O)N1CCC2(CC1)COc1c2ccc2c1CN(C1CCC(=O)NC1=O)C2=O)CC1CCN(c2ccc([C@@H]3c4ccc(O)cc4CC[C@@H]3c3ccccc3)cc2)CC1 (stereo partly drawn) [J12]	68	86	1940	1.1	60	53	–	–
O=C1CCC(N2Cc3cc4c(cc3C2=O)OC2(CC4)CN(C3CCC4(CC3)CN(c3ccc([C@@H]5c6ccc(O)cc6CC[C@@H]5c5ccccc5)cc3)C4)C2)C(=O)N1 (stereo partly drawn) [B9]	16	45	86	7	0	17	–	–
C[C@@H]1Cc2c(ccc3[nH]ncc23)[C@@H](c2ccc(N3CCN(C[C@H]4CC[C@H](C(=O)N5CCC6(CC5)COc5c6ccc6c5CN(C5CCC(=O)NC5=O)C6=O)CC4)CC3)cn2)N1CC(F)(F)F (stereo partly drawn) [A117]	66	77	63.3	10.1	48	47	–	–
O=C1CCC(N2Cc3c(ccc4c3OCC43CCN(C4CCC(Oc5ccc([C@@H]6c7ccc(O)cc7CC[C@@H]6c6ccccc6)cc5)CC4)CC3)C2=O)C(=O)N1 (stereo partly drawn) [H12]	-1	11	35.5	15.9	4	28	–	–
CCOC(=O)[C@H]1CC(N2CCC3(CC2)COc2c3ccc3c2CN(C2CCC(=O)NC2=O)C3=O)CCN1C1CC2(CCN(c3ccc([C@@H]4c5ccc(O)cc5CC[C@@H]4c4ccccc4)cc3)CC2)C1 (stereo partly drawn) [A113]	26	64	21.6	4.61	4	52	–	–
O=C1CCC(N2Cc3cc4c(cc3C2=O)OC2(CC4)CN(C(=O)[C@H]3CC[C@H](CN4CCN(c5ccc([C@@H]6c7ccc(O)cc7CC[C@@H]6c6ccccc6)cc5)CC4)CC3)C2)C(=O)N1 (stereo partly drawn) [C8]	60	78	2730	0.99	29	40	–	–
O=C1CCC(N2Cc3cc4c(cc3C2=O)CCC2(CN(C(=O)C3CCN(c5ccc([C@@H]6c7ccc(O)cc7CC[C@@H]6c6ccccc6)cc5)CC3)C2)O4)C(=O)N1 (stereo partly drawn) [A50]	24	53	4080	4.16	11	27	–	–
O=C1CCC(N2Cc3c(ccc4c3OCC43CCN(CC(=O)N4CCN(c5ccc([C@@H]6c7ccc(O)cc7CC[C@@H]6c6ccccc6)cc5)CC4)CC3)C2=O)C(=O)N1 (stereo partly drawn) [H18]	69	57	7380	1.55	18	58	–	–
O=C1CCC(N2Cc3c(ccc4c3OCC43CCN(C4CCN(C(=O)C5(F)CCN(c6ccc([C@@H]7c8ccc(O)cc8CC[C@@H]7c7ccccc7)cc6)CC5)CC4)CC3)C2=O)C(=O)N1 (stereo partly drawn) [A89]	40	70	110	2.16	48	72	–	–
O=C1CCC(N2Cc3cc4c(cc3C2=O)OC2(CC4)CN(C(=O)C3CCN(c4ccc([C@@H]5c6ccc(O)cc6CC[C@@H]5c5ccccc5)cc4)CC3)C2)C(=O)N1 (stereo partly drawn) [A51]	-10	3	2920	12.2	5	15	–	–
